Converted amounts (≈) assume the structure as drawn.
Legend:
Type in all cases: functional
Haemophilus influenzae [1] = assay: Minimum inhibitory concentration against Haemophilus influenzae (beta-lactamase (+))
Escherichia coli = assay: Minimum inhibitory concentration against Escherichia coli
Staphylococcus aureus = assay: Minimum inhibitory concentration against Staphylococcus aureus
Haemophilus influenzae [2] = assay: Minimum inhibitory concentration against H influenzae(beta-lactamase (-))
Streptococcus pyogenes = assay: Minimum inhibitory concentration against Streptococcus pyogenes
Streptococcus pneumoniae = assay: Minimum inhibitory concentration against Streptococcus pneumoniae
Haemophilus influenzae [3] = assay: Minimum inhibitory concentration against H influenzae (beta-lactamase (-))

SMILES	MIC (Haemophilus influenzae [1])	MIC (Escherichia coli)	MIC (Staphylococcus aureus)	MIC (Haemophilus influenzae [2])	MIC (Streptococcus pyogenes)	MIC (Streptococcus pneumoniae)	MIC (Haemophilus influenzae [3])
CO[C@@]1(NC(=O)Cc2csc(N)n2)C(=O)N2C(C(=O)O)=C(Cl)CSC21 (some centres not stated)	16 µg/mL (≈ 39.5 µM)	8 µg/mL (≈ 19.8 µM)	16 µg/mL (≈ 39.5 µM)	16 µg/mL (≈ 39.5 µM)	1 µg/mL (≈ 2.47 µM)	0.5 µg/mL (≈ 1.24 µM)	–
O=C(COc1ccccc1)N[C@@H]1C(=O)N2C(C(=O)O)=C(Cl)CSC12 (some centres not stated)	2 µg/mL (≈ 5.42 µM)	64 µg/mL (≈ 174 µM)	0.25 µg/mL (≈ 0.678 µM)	–	0.125 µg/mL (≈ 0.339 µM)	0.25 µg/mL (≈ 0.678 µM)	2 µg/mL (≈ 5.42 µM)
Nc1nc(CC(=O)N[C@@H]2C(=O)N3C(C(=O)O)=C(Cl)CSC23)cs1 (some centres not stated)	1 µg/mL (≈ 2.67 µM)	1 µg/mL (≈ 2.67 µM)	1 µg/mL (≈ 2.67 µM)	1 µg/mL (≈ 2.67 µM)	0.125 µg/mL (≈ 0.333 µM)	0.5 µg/mL (≈ 1.33 µM)	–
CO[C@@]1(NC(=O)Cc2cccs2)C(=O)N2C(C(=O)O)=C(Cl)CSC21 (some centres not stated)	> 128 µg/mL	> 128 µg/mL	> 128 µg/mL	> 128 µg/mL	128 µg/mL (≈ 329 µM)	128 µg/mL (≈ 329 µM)	–
CO[C@@]1(NC(=O)COc2ccccc2)C(=O)N2C(C(=O)O)=C(Cl)CSC21 (some centres not stated)	> 128 µg/mL	> 128 µg/mL	> 128 µg/mL	> 128 µg/mL	128 µg/mL (≈ 321 µM)	128 µg/mL (≈ 321 µM)	–
O=C(Cc1cccs1)N[C@@H]1C(=O)N2C(C(=O)O)=C(Cl)CSC12 (some centres not stated)	1 µg/mL (≈ 2.79 µM)	4 µg/mL (≈ 11.1 µM)	0.5 µg/mL (≈ 1.39 µM)	1 µg/mL (≈ 2.79 µM)	0.125 µg/mL (≈ 0.348 µM)	0.125 µg/mL (≈ 0.348 µM)	–
N[C@@H](C(=O)N[C@@H]1C(=O)N2C(C(=O)O)=C(Cl)CS[C@H]12)c1ccccc1.O [CEFACLOR]	2 µg/mL	1 µg/mL	1 µg/mL	1 µg/mL	0.25 µg/mL	0.5 µg/mL	–

— ChEMBL document CHEMBL1123987, “Oral absorption of cephalosporin antibiotics. 3. Synthesis and biological properties of 7 alpha-methoxy-7 beta-(arylacetamido)-3-chloro-3-cephem-4-carboxylic acids” (1988)
